Results from patent US8759373B2, “Cyanoisoquinoline compounds and methods of use thereof” (Fibrogen, Inc., priority 2006, dated 2014).

System: mouse erythropoietin
Assay: Plasma erythropoietin levels in mice after IV dosing (mouse erythropoietin QUANTIKINE ELISA)
Assay type: in vivo, Male Swiss Webster mice
Conditions: blood 4 hours post IV dosing, same conditions and concentration
Protocol: Compounds were tested for activity using the following assay. Compounds were dissolved in aqueous solution containing twice as much sodium hydroxide, mole-for-mole, as compound and dextrose as tonicity agent. Male Swiss Webster mice were dosed by tail vein injection with the compound, and blood samples were collected into EDTA and heparin 4 hours post IV dosing. The samples were analyzed using a mouse erythropoietin QUANTIKINE ELISA kit (R&D Systems Inc., Minneapolis Minn.) according to the manufacturer's instructions. […] Table 1 below illustrates the fold difference (i.e., the level of improvement) between erythropoietin levels achieved by compounds of the invention compared to erythropoietin levels achieved by compounds having the same structure except the cyano group at the C-1 position is replaced as shown below, tested under the same conditions and at the same concentration.

[1] = comparator: same structure with —Cl in place of cyano at C-1, tail vein injection
[2] = comparator: same structure with —H in place of cyano at C-1, tail vein injection
[3] = comparator: same structure with —CH3 in place of cyano at C-1, tail vein injection

Row | SMILES | Fold Difference (erythropoietin levels vs. comparative compound) [1] [×] | Fold Difference (erythropoietin levels vs. comparative compound) [2] [×] | Fold Difference (erythropoietin levels vs. comparative compound) [3] [×] | further results
1 | N#Cc1nc(C(=O)NCC(=O)O)c(O)c2cc(Oc3ccccc3)ccc12 [Example 12, [(1-Cyano-4-hydroxy-6-phenoxy-isoquinoline-3-carbonyl)-amino]-acetic acid] | 449 | – | – | Fold Difference (erythropoietin levels vs. comparative compound) (comparator: same structure with —Br in place of cyano at C-1, tail vein injection): 362×
2 | CN(C)c1nc2cc(Oc3ccc4c(C#N)nc(C(=O)NCC(=O)O)c(O)c4c3)ccc2o1 [Example 40, {[1-Cyano-6-(2-dimethylamino-benzooxazol-5-yloxy)-4-hydroxy-isoquinoline-3-carbonyl]-amino}-acetic acid] | – | 81 | – | –
3 | Cc1nc2ccc(Oc3ccc4c(C#N)nc(C(=O)NCC(=O)O)c(O)c4c3)cc2s1 [Example 39, {[1-Cyano-4-hydroxy-6-(2-methyl-benzothiazol-6-yloxy)-isoquinoline-3-carbonyl]-amino}-acetic acid] | – | – | 178 | –
4 | N#Cc1nc(C(=O)NCC(=O)O)c(O)c2ccc(Oc3ccccc3)cc12 [Example 3, [(1-Cyano-4-hydroxy-7-phenoxy-isoquinoline-3-carbonyl)-amino]-acetic acid] | – | – | 2.5 | –
5 | N#Cc1nc(C(=O)NCC(=O)O)c(O)c2ccc(Cc3ccccc3)cc12 [Example 22, [(7-Benzyl-1-cyano-4-hydroxy-isoquinoline-3-carbonyl)-amino]-acetic acid] | – | 26 | – | –
6 | N#Cc1nc(C(=O)NCC(=O)O)c(O)c2c(Oc3ccc(F)cc3)cccc12 [Example 23, {[1-Cyano-5-(4-fluoro-phenoxy)-4-hydroxy-isoquinoline-3-carbonyl]-amino}-acetic acid] | – | 277 | – | –
7 | N#Cc1nc(C(=O)NCC(=O)O)c(O)c2cccc(Oc3ccccc3)c12 [Example 9, [(1-Cyano-4-hydroxy-8-phenoxy-isoquinoline-3-carbonyl)-amino]-acetic acid] | – | – | 2.4 | –
8 | N#Cc1nc(C(=O)NCC(=O)O)c(O)c2ccc(Oc3ccc(F)cc3)cc12 [Example 6, {[1-Cyano-7-(4-fluoro-phenoxy)-4-hydroxy-isoquinoline-3-carbonyl]-amino}-acetic acid] | 31 | – | – | –
9 | N#Cc1nc(C(=O)NCC(=O)O)c(O)c2ccccc12 [Example 1, [(1-Cyano-4-hydroxy-isoquinoline-3-carbonyl)-amino]-acetic acid] | 4.7 | – | – | –
10 | COc1cccc(Oc2cccc3c(O)c(C(=O)NCC(=O)O)nc(C#N)c23)c1 [Example 20, {[1-Cyano-4-hydroxy-8-(3-methoxy-phenoxy)-isoquinoline-3-carbonyl]-amino}-acetic acid] | – | 23 | – | –
